# Results taken from patent US20060287319A1, “Anti-viral compositions comprising heterocyclic substituted phenyl furans and related compounds” (priority 2005, published 2006).
# Where two headings read alike, the source gives them in different places.
# How the values were obtained:
# HIV-1 IIIB [1] = conditions: for EC50: read-out: EC50 (μM) (M ± SD) for inhibition of p24, MT-2 cells; for SI (CC50/EC50): selectivity index
# Experimental: Assessment of anti-HIV-1 infectivity. The inhibitory activity of compounds on infection by laboratory-adapted HIV-1 strains was determined as previously described (34). […] For the time-of-addition assay, compounds were added at various time post-infection. Then the culture supernatants were removed and fresh media were added. On the fourth day post-infection, 100 μl of culture supernatants were collected from each well, mixed with equal volumes of 5% Triton X-100 and assayed for p24 antigen, which was quantitated by ELISA (23). Briefly, the wells of polystyrene plates (Immulon 1B, Dynex Technology, Chantilly, Va.) were coated with HIV immunoglobulin (HIVIG), which was prepared from plasma of HIV-seropositive donors with high neutralizing titers against HIV-1IIIB as previously described (36) in 0.085 M carbonate-bicarbonate buffer (pH 9.6) at 4° C. overnight, followed by washes with PBS-T buffer (0.01M PBS containing 0.05% Tween-20) and blocking with PBS containing 1% dry fat-free milk (Bio-Rad Inc., Hercules, Calif.). Virus lysates were added to the wells and incubated at 37° C. for 1 h. […] Reactions were terminated by addition of 1N H2SO4. […] Recombinant protein p24 (US Biological, Swampscott, Mass.) was included for establishing standard dose response curve.
# HIV-1 IIIB [2] = assay: HIV-1-mediated cytopathic effect (CPE); assay type: cell-based; conditions: read-out: EC50 (μM) (M ± SD) for inhibition of CPE
# Text: We thus purchased these compounds and tested their inhibitory activity on: 1) HIV-1 replication (p24 production); 2) HIV-1-mediated cytopathic effect (CPE); and 3) HIV-1 Env-induced cell-cell fusion; and their cytotoxicity to MT-2 cells.
# 92UG001 (clade D, X4) = conditions: read-out: EC50 (μM) (Mean ± SD)
# Experimental: (§1) Inhibitory activity of compounds on infection by primary HIV-1 isolates was determined as previously described (37). PBMCs were isolated from the blood of healthy donors at the New York Blood Center by standard density gradient centrifugation using Histopaque-1077 (Sigma). The cells were plated in 75 cm^2 plastic flasks and incubated at 37° C. for 2 hrs. The nonadherent cells were collected and resuspended at 5×10^6 in 10 ml RPMI-1640 medium containing 10% FBS, 5 μg/ml PHA and 100 U/ml IL-2 (Sigma), followed by incubation at 37° C. for 3 days. The PHA-stimulated cells were infected with corresponding primary HIV-1 isolates at 0.01 multiplicity of infection (MOI) in the absence or presence of a compound at graded concentrations. Culture media were changed every 3 days. The supernatants were collected 7 days post-infection and tested for p24 antigen by ELISA as described above. The percent inhibition of p24 production and IC50 values were calculated as described above.
# 93BR020 (clade F, X4R5) = conditions: read-out: EC50 (μM) (Mean ± SD)
# Experimental: as §1
# 93MW959 (clade C, R5) = conditions: read-out: EC50 (μM) (Mean ± SD)
# Experimental: as §1
# BCF02 (clade O, R5) = conditions: read-out: EC50 (μM) (Mean ± SD)
# Experimental: as §1
# [3] = read-out: IC50 (μM) (Mean ± SD), HIV-1 strain IIIB
Compound,EC50 (HIV-1 IIIB [1]; HIV-1 IIIB) [µM],IC50 (HIV-1 IIIB [1]; [3]) [µM],SI (CC50/EC50) (HIV-1 IIIB [1]),EC50 (HIV-1 IIIB [2]) [µM],"EC50 (92UG001 (clade D, X4)) [µM]","EC50 (93BR020 (clade F, X4R5)) [µM]","EC50 (93MW959 (clade C, R5)) [µM]","EC50 (BCF02 (clade O, R5)) [µM]","IC50 (HIV-1 IIIB [1]; read-out: IC50 inhibiting HIV-1 replication, HIV-1 IIIB) [µM]"
CCN1C(=O)/C(=C/c2ccc(-c3cccc(C(=O)O)c3)o2)SC1=S [NB179],0.501 ± 0.039,0.501 ± 0.039,>1230.77,0.924 ± 0.077,0.613 ± 0.099,0.143 ± 0.056,1.87 ± 0.155,0.886 ± 0.242,
O=C(O)c1cc(-c2ccc(/C=C3\SC(=S)N(CCc4ccccc4)C3=O)o2)ccc1Cl [NB206],0.019 ± 0.002,,981.11,0.092 ± 0.002,0.188 ± 0.053,0.084 ± 0.036,0.097 ± 0.002,0.073 ± 0.012,0.019
O=C(O)c1cccc(-c2ccc(/C=C3\SC(=S)N(c4ccc(Cl)cc4Cl)C3=O)o2)c1 [NB231],0.189 ± 0.042,0.189 ± 0.042,656.56,0.525 ± 0.126,0.19 ± 0.002,0.139 ± 0.033,0.876 ± 0.002,0.226 ± 0.003,
